Here are results for four molecules from publication PMC7665192, “A natriuretic peptide from Arabidopsis thaliana (AtPNP-A) can modulate catalase 2 activity” (Scientific Reports, 2020).

The test system of one data set is cGMP. Conditions: cited from earlier work. The text has this:
Similarly, identification of novel receptors targeted by an increasing number of peptidic plant hormones discovered in the last few decades[8],[9] is anticipated. One of those, the plant natriuretic peptides (PNPs), are a group of systemically mobile signals[10] that have a role in the maintenance of salt and water balance[11],[12]. An A. thaliana PNP, termed AtPNP-A (At2g18660; Q9ZV52), has been implicated in several physiological processes ranging from the regulation of stomatal aperture, osmoticum-dependent volume changes[13],[14] and modulation of developmental stage- and tissue-specif ... || A PNP_CAT interaction in plant responses to infecting pathogens is not surprising. CATs commonly function to down-regulate ROS during ABA-induced stomatal closure, and ABA-induced stomatal closure can be inhibited by removal of H2O2 via CAT2[73],[74]. […] Therefore, it is tempting to speculate that AtPNP-A modulates the effect of ABA on stomatal aperture through the interaction w ...

The next data set has as its system guard cell. As to conditions: cited from earlier work. An excerpt: A PNP_CAT interaction in plant responses to infecting pathogens is not surprising. CATs commonly function to down-regulate ROS during ABA-induced stomatal closure, and ABA-induced stomatal closure can be inhibited by removal of H2O2 via CAT2[73],[74]. […] Therefore, it is tempting to speculate that AtPNP-A modulates the effect of ABA on stomatal aperture through the interaction w ...

A further data set has as its system CAT2 transcript. Conditions: exogenous application; cited from earlier work. The text has this: (§1) It is also conceivable that modulation of CAT2 activity by AtPNP-A may not only have implications for plant biotic stress tolerance but may also result in changes in responses to abiotic stress. Activity of CAT2 is required for decomposition of photorespiration-derived H2O2 preventing redox perturbation under ambient growth conditions[59] while CAT2 deficiency causes a defective photorespiration phenotype including suppressed growth[58],[59] and accumulation of H2O2 in leaves. During senescence suppression of CAT2 function, mediated by G-BOX BINDING FACTOR1 (GBF1)[76], decreases CAT2 activ ...

The next data set has as its system plant pathogen. Conditions: exogenous H2O2; cited from earlier work.
Data set [1] deals with AtPNP-A-deficient seedlings. As to conditions: cited from earlier work.
Excerpt: as §1

Data set [2] has as its target T1, recombinant catalase 2 (rCAT2), N-terminally 6xHis-tagged (A. thaliana, UniProt P25819 1-492).
T1 construct: catalase 2 (CAT2), A. thaliana; held on the NTA chip by its His tag; also called CAT2 recombinant protein; His-tagged rCAT2; source: E. coli BL21 (DE3) One Shot, purified (Ni-NTA beads, HisTrap HP column); not shown: 6xHis, N-terminal, kept
T1 sequence (looked up): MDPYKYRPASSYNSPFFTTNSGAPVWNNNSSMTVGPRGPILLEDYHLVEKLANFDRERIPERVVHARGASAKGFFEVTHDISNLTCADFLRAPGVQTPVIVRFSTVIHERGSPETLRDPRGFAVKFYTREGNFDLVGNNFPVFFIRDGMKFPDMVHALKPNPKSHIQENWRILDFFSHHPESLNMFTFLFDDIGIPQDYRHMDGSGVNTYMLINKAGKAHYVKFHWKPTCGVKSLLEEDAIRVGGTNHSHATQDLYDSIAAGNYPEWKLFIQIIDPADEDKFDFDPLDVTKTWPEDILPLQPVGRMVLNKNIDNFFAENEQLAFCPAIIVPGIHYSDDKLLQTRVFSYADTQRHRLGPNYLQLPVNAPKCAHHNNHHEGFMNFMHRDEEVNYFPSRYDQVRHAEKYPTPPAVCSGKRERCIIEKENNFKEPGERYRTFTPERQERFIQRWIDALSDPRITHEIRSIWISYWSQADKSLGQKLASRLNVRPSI
Nature of the data set: SPR; Biacore T100, 20 °C; His-tagged rCAT2 immobilised on the NTA sensor chip (app. 4,500 RU), peptides injected at the same concentration; unmodified reference surface. As to conditions: both partners purified. In general terms: In SPR one partner is held on a chip, and binding of the other changes the refractive index at the surface.

The target in data set [3] is T2, bovine liver CAT (C-40; Sigma) (bovine, UniProt P00432 1-527).
T2 construct: catalase from bovine liver; also called bovine CAT; bovine liver catalase; source: bought: Sigma (C-40), bovine liver
T2 sequence (looked up): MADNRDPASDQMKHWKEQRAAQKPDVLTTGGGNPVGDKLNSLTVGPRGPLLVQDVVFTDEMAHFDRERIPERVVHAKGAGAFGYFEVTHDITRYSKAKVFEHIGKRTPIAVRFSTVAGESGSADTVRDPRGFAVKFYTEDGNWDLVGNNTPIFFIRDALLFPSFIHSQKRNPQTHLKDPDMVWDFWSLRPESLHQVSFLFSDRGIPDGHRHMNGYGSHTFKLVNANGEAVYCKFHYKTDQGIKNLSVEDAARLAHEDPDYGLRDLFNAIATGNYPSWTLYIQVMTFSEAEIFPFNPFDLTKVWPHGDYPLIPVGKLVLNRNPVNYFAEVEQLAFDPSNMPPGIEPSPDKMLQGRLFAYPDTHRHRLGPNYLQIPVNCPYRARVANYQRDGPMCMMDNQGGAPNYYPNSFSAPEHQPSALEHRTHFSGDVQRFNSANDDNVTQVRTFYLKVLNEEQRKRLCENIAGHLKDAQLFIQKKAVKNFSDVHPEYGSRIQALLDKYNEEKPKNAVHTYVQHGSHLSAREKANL
Nature of the data set: SPR; Biacore T100, 20 °C, flow 100 μL/min; bovine liver CAT amine-coupled to Series S CM5 chip, pAtPNP-A at 3.78 μM and consecutive twofold dilutions (11 injections); regeneration with glycine pH 2.0; kinetic analysis. Conditions: both partners purified.

Positions of bridges follow the written chain, without caps; N, C: chain ends. No end group written: not given here.

In the case of `CC1=CC(=O)CC(C)(C)[C@@]1(O)/C=C/C(C)=C\C(=O)O` [ABA, abscisic acid, reference compound], the “Effect of ABA on AtPNP-A-dependent cGMP increases” value in the data set on cGMP is recorded as “no effect”. For the same molecule, in the data set on guard cell, the “Effect of ABA on AtPNP-A-dependent guard cell volume increases” value is given as “no effect”.

Turning to `OO` [H2O2, hydrogen peroxide], in the data set with CAT2 transcript, the CAT2 transcript result was “Increases in CAT2 transcript”. Besides, in the data set on plant pathogen, the Plant pathogen resistance result is given as “enhances plant pathogen resistance”.

With `C[n+]1ccc(-c2cc[n+](C)cc2)cc1` [methyl viologen], in data set [1], the “Chlorosis in AtPNP-A-deficient seedlings” value is “extensive chlorosis”. In addition, the CAT2 transcript result in the data set with CAT2 transcript is listed as “Increases in CAT2 transcript”.

B1: pAtPNP-A, synthetic peptide with the active region of AtPNP-A, as used in SPR, ITC and the catalase activity assay (peptide, UniProt Q9ZV52 33-66, looked up)
peptide: YDPPYTRSACYGTQRETLVVGVKNNLWQNGRACG
modifications: disulfide 10-33 (inferred); not fully specified
notes: AtPNP-A (plant natriuretic peptide A), A. thaliana, active region, amino acids 33-66; peptides were made with or without a C-terminal biotin tag; also called biologically active fragment of AtPNP-A; source: synthetic peptide (GenScript, purity > 95%)
The Kd is the constant that tells how readily two partners part at equilibrium. Read a low Kd as higher affinity. For the molecule B1, the binding result in data set [2] was “binds”. Also, in data set [3], binding was put at a Kd of 86 nM.
